# Test results reported in US20160257697A1, “THIOPHENE-SUBSTITUTED TETRACYCLIC COMPOUNDS AND METHODS OFUSE THEREOF FOR THE TREATMENT OF VIRAL DISEASES” (priority 2013, published 2016).
# Like-named read-outs stand apart in the source and are kept apart here.
# How the values were obtained:
# Test in all cases: microbe, parasite or virus in culture
# Assay type in all cases: cell-based, Hepatitis C virus (HCV)
# HCV replicon 1B = settings: Replicon Assay B
# HCV replicon 1AQ30D = settings: Replicon Assay B
# HCV replicon 1A = settings: Replicon Assay A
# Procedure, shortened: (§1)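 Replicon cells incubated with compound for 3 days in medium with 5% FBS and 0.5% DMSO final. Replicon RNA measured in lysates by multiplex real-time RT-PCR (Neo set) against cyclophilin control, quantified from standard curves of Ct versus log ng replicon total RNA.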
# HCV replicon 2B = settings: Replicon Assay A
# Procedure, shortened: as §1
# HCV replicon 1AY93H = settings: Replicon Assay A
# Procedure, shortened: as §1
# [1] = read-out: 1A Q30D IC50, replicon 1AQ30D
# [2] = read-out: 1A Y93H IC50, replicon 1AY93H
# [3] = read-out: 1A Q30D IC50, HCV replicon 1A Q30D
# [4] = read-out: 2B IC50, HCV replicon 2B
# [5] = read-out: 1A Y93H IC50, HCV replicon 1A Y93H
SMILES,IC50 (HCV replicon 1B; replicon 1B),IC50 (HCV replicon 1AQ30D; [1]),IC50 (HCV replicon 1A; replicon 1A),"IC50 (HCV replicon 2B; read-out: 2B IC50, replicon 2B)",IC50 (HCV replicon 1AY93H; [2]),IC50 (HCV replicon 1B; HCV replicon 1B),IC50 (HCV replicon 1AQ30D; [3]),IC50 (HCV replicon 1A; HCV replicon 1A),IC50 (HCV replicon 2B; [4]),IC50 (HCV replicon 1AY93H; [5]),other results
"COC(=O)NC(C(=O)N1CCC[C@H]1c1ncc(-c2ccc3c(c2)cc2n3C(c3ccc(C4CC4)s3)Oc3cc(-c4cnc([C@@H]5CCCN5C(=O)[C@@H](NC(=O)OC)C(C)C)[nH]4)cc(F)c3-2)[nH]1)C1CCO[C@H](C)C1 (single isomer, unassigned) [Compound 139]",1.4 pM,1.03 nM,1.9 pM,110 pM,85 pM,,,,,,
"COC(=O)NC(C(=O)N1CCC[C@H]1c1ncc(-c2ccc3c(c2)c(F)c2n3C(c3ccc(C4CC4)s3)Oc3cc(-c4cnc([C@@H]5CCCN5C(=O)[C@@H](NC(=O)OC)C(C)C)[nH]4)cc(F)c3-2)[nH]1)C1CCOC(C)(C)C1 (single isomer, unassigned) [Compound 413]",,,,,,,,,,,"IC50 (HCV replicon 1B; Hepatitis C virus, HCV replicon 1B): 3 pM; IC50 (HCV replicon 1AQ30D; Hepatitis C virus, read-out: 1A Q30D IC50, HCV replicon 1A Q30D): 0.278 nM; IC50 (HCV replicon 1A; Hepatitis C virus, HCV replicon 1A): 3 pM; IC50 (HCV replicon 2B; Hepatitis C virus, read-out: 2B IC50, HCV replicon 2B): 7.1 pM; IC50 (HCV replicon 1AY93H; Hepatitis C virus, read-out: 1A Y93H IC50, HCV replicon 1A Y93H): 14.1 pM"
"COC(=O)NC(C(=O)N1[C@@H]2C[C@@H]2C[C@H]1c1ncc(-c2ccc3c(c2)cc2n3C(c3ccc(CC4CC4)s3)Oc3cc(-c4cnc([C@@H]5CCCN5C(=O)[C@@H](NC(=O)OC)C(C)C)[nH]4)cc(F)c3-2)[nH]1)C1CCOC(C)(C)C1 (single isomer, unassigned) [Compound 419]",,,,,,8.3 pM,0.0916 nM,7.2 pM,13.2 pM,7.2 pM,
COC(=O)NC(C(=O)N1CCC[C@H]1c1ncc(-c2cc(F)c3c(c2)OC(c2ccc(C4CC4)s2)n2c-3cc3cc(-c4cnc([C@@H]5CCCN5C(=O)[C@@H](NC(=O)OC)C5CCOCC5)[nH]4)ccc32)[nH]1)C(C)(C)F (stereo partly drawn) [Compound 168],1.5 pM,,,2 pM,2 pM,,,,,,"IC50 (HCV replicon 1AQ30D; Hepatitis C virus, read-out: 1A Q30D IC50 (nM), replicon 1AQ30D): 0.011 nM; IC50 (HCV replicon 1A; Hepatitis C virus, replicon 1A): 1.3 pM"
"COC(=O)N[C@H](C(=O)N1CCC[C@H]1c1ncc(-c2cc(F)c3c(c2)OC(c2cc(C4CC4)cs2)n2c-3cc3cc(-c4cnc([C@@H]5CCCN5C(=O)[C@@H](NC(=O)OC)C(C)C)[nH]4)ccc32)[nH]1)C(C)C (single isomer, unassigned) [Compound 23]",,1.75 nM,,780 pM,240 pM,,,,,,"IC50 (HCV replicon 1B; Hepatitis C virus, replicon 1B): 3.9 pM; IC50 (HCV replicon 1A; Hepatitis C virus, replicon 1A): 3.2 pM"
"COC(=O)NC(C(=O)N1CCC[C@H]1c1ncc(-c2ccc3c(c2)cc2n3C(c3ccc(CC4CC4)s3)Oc3cc(-c4cnc([C@@H]5CCCN5C(=O)[C@@H](NC(=O)OC)C(C)C)[nH]4)cc(F)c3-2)[nH]1)C1CCOC(C)(C)C1 (single isomer, unassigned) [Compound 408]",,,,,,1.9 pM,0.0261 nM,3.5 pM,5 pM,4 pM,
COC(=O)N[C@H](C(=O)N1CCC[C@@H]1c1ncc(-c2cc(F)c3c(c2)OC(c2ccc(C(C)C)s2)n2c-3cc3cc(-c4c[nH]c([C@@H]5CCCN5C(=O)[C@H](NC(=O)OC)C5C[C@@H](C)O[C@@H](C)C5)n4)ccc32)[nH]1)C(C)C (stereo partly drawn) [Compound 240],2.7 pM,0.062 nM,2.1 pM,11 pM,5 pM,,,,,,
"COC(=O)NC(C(=O)N1CCC[C@H]1c1ncc(-c2ccc3c(c2)cc2n3C(c3ccc(C4CC4)s3)Oc3cc(-c4cnc([C@@H]5CCCN5C(=O)[C@@H](NC(=O)OC)C5CCOCC5)[nH]4)cc(F)c3-2)[nH]1)C(C)(C)F (single isomer, unassigned) [Compound 172]",,0.018 nM,1.5 pM,5 pM,4 pM,,,,,,"IC50 (HCV replicon 1B; Hepatitis C virus, replicon 1B): 1.8 pM"
"COC(=O)NC(C(=O)N1CCC[C@H]1c1ncc(-c2ccc3c(c2)cc2n3C(c3ccc(C4CCCC4)s3)Oc3cc(-c4cnc([C@@H]5CCCN5C(=O)[C@@H](NC(=O)OC)C(C)C)[nH]4)cc(F)c3-2)[nH]1)C1C[C@@H](C)O[C@@H](C)C1 (single isomer, unassigned) [Compound 656]",,,,,,2.8 pM,0.0481 nM,1.5 pM,2.6 pM,2.5 pM,
